Measurements as given in article PMC7175138, “Synthesis and Bioactivity of Thiazolethioacetamides as Potential Metallo-β-Lactamase Inhibitors” (Antibiotics, 2020).

molecular target: ImiS (Aeromonas veronii, UniProt O31272); assay: Enzyme inhibition assay, MβL ImiS, cefazolin as substrate; assay type: biochemical; settings: 25 °C, 30 min premix
Method: (§1) To test the inhibitory activity of compounds 1–12 against MβLs, three representative MβLs, VIM-2 (B1), ImiS (B2), and L1 (B3), were chosen for evaluation.
(§2) The enzyme inhibition activity assay was carried out on an Agilent-8453 UV-visible spectrometer. […] Cefazolin (Sigma-Aldrich, Burlington, MO, USA), with a concentration of 20 to 140 μM, was taken as the substrate. The enzyme and inhibitor were premixed with the corresponding MβL and the thiazolethioacetamides for 30 min. The IC50 values were measured at 25 °C with the inhibitor concentrations of 0 and 1000 μM, and analyzed through IC50 calculation tool (AAT Bioquest Inc., sunnyvale, CA, USA).

Chain of ImiS (O31272 entry or part of it): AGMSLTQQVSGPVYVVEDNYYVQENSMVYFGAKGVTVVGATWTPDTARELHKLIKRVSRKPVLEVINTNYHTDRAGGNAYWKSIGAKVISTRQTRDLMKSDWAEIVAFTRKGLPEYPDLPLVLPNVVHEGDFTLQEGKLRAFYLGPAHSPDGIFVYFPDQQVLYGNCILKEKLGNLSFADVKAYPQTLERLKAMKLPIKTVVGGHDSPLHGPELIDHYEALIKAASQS

| SMILES | IC50 [nM] |
| --- | --- |
| O=C(CSc1nnc(-c2ccccc2O)s1)Nc1ccc(Cl)cc1 [Compound 1] | 580 |
| O=C(CSc1nnc(-c2ccccc2O)s1)Nc1cccc(Cl)c1 [Compound 2] | 530 |
| O=C(CSc1nnc(-c2ccccc2O)s1)Nc1ccc(Cl)c(Cl)c1 [Compound 3] | 690 |
| O=C(CSc1nnc(-c2ccccc2O)s1)Nc1ccc(Cl)cc1Cl [Compound 4] | 580 |
| O=C(CSc1nnc(-c2ccccc2O)s1)Nc1ccc(Cl)cc1[N+](=O)[O-] [Compound 5] | 170 |
| O=C(CSc1nnc(-c2ccccc2O)s1)Nc1cc(Cl)ccc1[N+](=O)[O-] [Compound 6] | 360 |
| O=C(CSc1nnc(-c2ccccc2O)s1)Nc1ccc([N+](=O)[O-])cc1Cl [Compound 7] | 420 |
| O=C(CSc1nnc(-c2ccccc2O)s1)Nc1ccc(OC(F)(F)F)cc1 [Compound 8] | 310 |
| O=C(CSc1nnc(-c2ccccc2O)s1)Nc1ccc(F)cc1 [Compound 9] | 460 |
| O=C(CSc1nnc(-c2ccccc2O)s1)Nc1cccc(F)c1 [Compound 10] | 610 |
| O=C(CSc1nnc(-c2ccccc2O)s1)Nc1ccccc1F [Compound 11] | 680 |
| O=C(CSc1nnc(-c2ccccc2O)s1)Nc1c(F)cccc1F [Compound 12] | 700 |

molecular target: VIM-2 (Escherichia coli, UniProt Q5U7L7); assay: Enzyme inhibition assay, MβL VIM-2, cefazolin as substrate; assay type: biochemical; settings: 25 °C, 30 min premix
Method: as §1, §2

| SMILES | IC50 [nM] |
| --- | --- |
| O=C(CSc1nnc(-c2ccccc2O)s1)Nc1ccc(OC(F)(F)F)cc1 [Compound 8] | 2200 |
| O=C(CSc1nnc(-c2ccccc2O)s1)Nc1c(F)cccc1F [Compound 12] | 19200 |
